# Earlier results, collected in patent US11160278B2, “Use of active substances for controlling virus infection in plants” (Bayer CropScience Aktiengesellschaft, priority 2016, dated 2021).
# Key:
# [1] = test system: tobacco mosaic virus (TMV); conditions: also NahG transgenic tobacco
# [2] = test system: Pseudomonas syringae pv tabaci
smiles,measurement,setting,value
COC(=O)N(OC)c1ccccc1COc1ccn(-c2ccc(Cl)cc2)n1 [Pyraclostrobin],resistance of tobacco against infection by TMV,[1],enhance the resistance
same,resistance of tobacco against infection by Pseudomonas syringae pv tabaci,[2],enhance the resistance
